Laboratory results as given in patent US7132563B1, “Convenient method for the preparation of no-carrier-added O-(2-[18F]fluoroethyl)-L-tyrosine)” (Institute of Nuclear Energy Research, priority 2005, dated 2006).
Several values for one entry are separate records, joined by “and”; a condition that tells them apart may be missing. Equal values may be shown once.

Columns and labels:
[1] = test system: F98 glioma implanted Fischer 344 rat; experiment: Biological distribution of L-[^18F]FET in F98 glioma-bearing Fischer 344 rat; assay type: in vivo
Experimental: (1) Total of twenty Fischer 344 male rats will be assessed in vivo for L-[^18F]FET biological distribution. Use the intersection of bregma and sagittal midlines as original point; so as to implant F98 glioma cells (1×10^5 cells/10 μl) at the place of 3 mm left 5 mm upward and 5 mm depth. Biological distribution test will be carry out after 11˜12 days of brain tumor implantation.
(2) Different volume of radioactive level is injected, injected volume of L-[^18F]FET for each Fischer 344 rat is 200˜300 μl, that is approximately 200˜250 μCi of activity.
(3) Inject L-[^18F]FET via tail vein, and rats are sacrificed at 15, 30, 60, 90 and 120 minutes.
(4) Dissection of rat organ is right after sacrifice. Scissors off chest and abdomen fur alone the line from genital pore upward to jowl. Next, scissors off chest above xiphisternal transversely. Open ribs aside, take blood sample from venous sinus with 0.5 ml syringe. Withdraw the needle after depletion of blood and collect the extracted heart. Collect the lung lobes with forcep.
(5) Scissors off abdominal muscle from genital pore upward to the position below xiphisternal longitudinally. Then, scissors off the opening of upper and lower edges transversely, everts muscle layers to both sides and expose celiac organs. Search for bladder in lower abdomen and sequentially removes stomach, liver, spleen, small intestine, large intestine, kidney, and muscle.
(6) After turn over the rat, scissors off fur of shoulder and removes exposed subcutaneous tumor. Cut scalp upward at lower margin of cranium above foramen magnum and expose cranial bone. Then, cut cervical portion transversely at foramen magnum and expose spinal cord. Inserts foramen magnum with scissors' tip while attach the inner surface of cranium; such that scissors' tip can reach the frontal edge of cranial cavity in order to scissor off the center of cranium. Use scissors to open cranium aside and expose brain tissue. Alone skull base insert scissors deeply to the front edge of cranial cavity in order to remove left-brain, right-brain and brain tumor.
(7) Weight all organ samples; measure radioactivity with γ-counter and convert to % ID/g (% injection dose/g organ) of each organ for estimate the biological distribution of L-[^18F]FET. […] According to reports, L-[^18F]FET can pass through blood brain barrier (BBB) and enter brain by way of L amino acid transporter system. […] Tumor- to-normal brain ratio of L-[^18F]FET at 15, 30, 60, 90 and 120 minutes are 1.54, 1.74, 3.16, 3.14 and 2.34 respectively. […] Some papers reported that patient with tumor observes no significant accumulation of radioactivity in pancreas when use positron emission tomography (PET), the discrepant results were assumed that human and rat have different metabolic pathway. Furthermore, biological distribution study of L-[^18F]FET indicated radioactivity accumulation in tumor cells (expressed by % ID/g) are much higher than other normal organs (left-brain, small intestine, kidney, liver, blood and muscle) except pancreas, this means L-[^18F]FET can be a potential PET agent for substantially different site of tumor.

[2] = test system: F98 glioma implanted Fischer 344 rat; experiment: PET and microPET imaging of tumor-bearing rat with L-[^18F]FET; assay type: in vivo; conditions: 400 μCi via tail vein
Experimental: (1) Positron emission tomography (PET) studies of tumor-bearing rat (Fischer 344) with L-[^18F]FET will be carry out after 11˜12 days of brain tumor (F98 glioma) implantation.
(2) Producing processes of L-[^18F]FET as described above, and estimates its administrating amount of agent according to the level of radioactivity.
(3) At the very beginning, inject 400 μCi of L-[^18F]FET into tail vein. Temporarily anesthetize rats with ether at time of 0.5, 1, 1.5 and 2 hours. Fix rat on transparent acrylic board and place on PET table after securing stretched limbs on the board. Continuously anesthetize rats with isoflurane gas. Align implant portion of head with PET machine as to assure the fixation of original imaging position.
(4) Adjust background value by blank scan before PET imaging.
(5) Use […] radioactive source proceed transmission scan for adjust tissue attenuation.
(6) Commence PET and microPET imaging. Perform image processing after reconstruction of acquired image data; the coronal and cross section scans show in FIGS. 3 and 9. […] In contrast to tumor site, normal tissue have lower radioactivity accumulation of L-[^18F]FET because of lower amino acid requirement.

F98 glioma cells = experiment: L-[^18F]FET uptake by F98 glioma tumor cells; assay type: cell-based, rat; conditions: for uptake ratio (radioactivity uptake of cells / total added radioactivity): 10 μCi/well
Experimental: (1) In five six-well plates, put 1×10^6 F98 glioma cells and 2 ml DMEM (1 g glucose/l) into three wells.
(2) Total of five time points (2, 5, 10, 30 minute and 1 hour) in this experiment and each time point use one six-well plate.
(3) Predetermined activity of L-[^18F]FET or [^18F]FDG (10 μCi/well) is added into each well during the experiment. Radioactivity uptake of cells divided by total added radioactivity can obtain its calculated uptake ratio.
F98 glioma cells intake L-[^18F]FET rapidly and maximal accumulation will reach after 10 minutes (uptake ratio 0.47%). As cell cannot metabolize L-[^18F]FET, therefore, the rate of L-[^18F]FET transportation by the cells become balance after ten minutes when add L-[^18F]FET; the accumulation of L-[^18F]FET in glioma cells only slightly decrease after 1 hour (uptake ratio 0.41%).

[3] = 15 min after tail vein injection, tumor-bearing rat
[4] = 30 min after tail vein injection, tumor-bearing rat
[5] = 60 min after tail vein injection, tumor-bearing rat
[6] = 90 min after tail vein injection, tumor-bearing rat
[7] = 120 min after tail vein injection, tumor-bearing rat

N[C@@H](Cc1ccc(OCC[18F])cc1)C(=O)O [L-[^18F]FET, O-(2-[^18F]fluoroethyl)-L-Tyrosine]
accumulated radioactivity in Blood [1, 3]: 0.41 ± 0.03 % ID/g | accumulated radioactivity in Heart [1, 3]: 0.30 ± 0.06 % ID/g | accumulated radioactivity in Kidney [1, 3]: 0.33 ± 0.01 % ID/g | accumulated radioactivity in Large intestine [1, 3]: 0.21 ± 0.01 % ID/g | accumulated radioactivity in Left brain [1, 3]: 0.08 ± 0.01 % ID/g | accumulated radioactivity in Liver [1, 3]: 0.27 ± 0.06 % ID/g | accumulated radioactivity in Lung [1, 3]: 0.32 ± 0.05 % ID/g | accumulated radioactivity in Muscle [1, 3]: 0.19 ± 0.03 % ID/g | accumulated radioactivity in Pancreas [1, 3]: 0.98 % ID/g and 0.98 ± 0.25 % ID/g | accumulated radioactivity in Right brain [1, 3]: 0.07 ± 0.02 % ID/g | accumulated radioactivity in Small intestine [1, 3]: 0.23 ± 0.11 % ID/g | accumulated radioactivity in Spleen [1, 3]: 0.31 ± 0.08 % ID/g | accumulated radioactivity in Stomach [1, 3]: 0.24 ± 0.05 % ID/g | accumulated radioactivity in Tumor [1, 3]: 0.12 ± 0.02 % ID/g | Tumor-to-normal brain ratio ([1]; 15 minutes after injection): 1.54 | accumulated radioactivity in Blood [1, 4]: 0.39 ± 0.03 % ID/g | accumulated radioactivity in Heart [1, 4]: 0.40 ± 0.07 % ID/g | accumulated radioactivity in Kidney [1, 4]: 0.34 ± 0.06 % ID/g | accumulated radioactivity in Large intestine [1, 4]: 0.28 ± 0.05 % ID/g | accumulated radioactivity in Left brain [1, 4]: 0.25 ± 0.05 % ID/g | accumulated radioactivity in Liver [1, 4]: 0.37 ± 0.07 % ID/g | accumulated radioactivity in Lung [1, 4]: 0.43 ± 0.09 % ID/g | accumulated radioactivity in Muscle [1, 4]: 0.28 ± 0.01 % ID/g | accumulated radioactivity in Pancreas [1, 4]: 1.76 % ID/g and 1.76 ± 0.16 % ID/g | accumulated radioactivity in Right brain [1, 4]: 0.21 ± 0.03 % ID/g | accumulated radioactivity in Small intestine [1, 4]: 0.52 ± 0.26 % ID/g | accumulated radioactivity in Spleen [1, 4]: 0.50 ± 0.11 % ID/g | accumulated radioactivity in Stomach [1, 4]: 0.36 ± 0.06 % ID/g | accumulated radioactivity in Tumor [1, 4]: 0.43 ± 0.10 % ID/g | Tumor-to-normal brain ratio ([1]; 30 minutes after injection): 1.74 | accumulated radioactivity in Blood [1, 5]: 0.38 ± 0.00 % ID/g | accumulated radioactivity in Heart [1, 5]: 0.43 ± 0.07 % ID/g | accumulated radioactivity in Kidney [1, 5]: 0.41 ± 0.08 % ID/g | accumulated radioactivity in Large intestine [1, 5]: 0.42 ± 0.06 % ID/g | accumulated radioactivity in Left brain [1, 5]: 0.40 ± 0.06 % ID/g | accumulated radioactivity in Liver [1, 5]: 0.41 ± 0.06 % ID/g | accumulated radioactivity in Lung [1, 5]: 0.43 ± 0.07 % ID/g | accumulated radioactivity in Muscle [1, 5]: 0.36 ± 0.04 % ID/g | accumulated radioactivity in Pancreas [1, 5]: 2.55 % ID/g and 2.55 ± 0.31 % ID/g | accumulated radioactivity in Right brain [1, 5]: 0.34 ± 0.03 % ID/g | accumulated radioactivity in Small intestine [1, 5]: 0.65 ± 0.04 % ID/g | accumulated radioactivity in Spleen [1, 5]: 0.51 ± 0.09 % ID/g | accumulated radioactivity in Stomach [1, 5]: 0.40 ± 0.05 % ID/g | accumulated radioactivity in Tumor [1, 5]: 1.26 ± 0.22 % ID/g | Tumor-to-normal brain ratio ([1]; 60 minutes after injection): 3.16 | accumulated radioactivity in Blood [1, 6]: 0.37 ± 0.03 % ID/g | accumulated radioactivity in Heart [1, 6]: 0.47 ± 0.02 % ID/g | accumulated radioactivity in Kidney [1, 6]: 0.42 ± 0.07 % ID/g | accumulated radioactivity in Large intestine [1, 6]: 0.46 ± 0.04 % ID/g | accumulated radioactivity in Left brain [1, 6]: 0.48 ± 0.14 % ID/g | accumulated radioactivity in Liver [1, 6]: 0.49 ± 0.01 % ID/g | accumulated radioactivity in Lung [1, 6]: 0.45 ± 0.02 % ID/g | accumulated radioactivity in Muscle [1, 6]: 0.44 ± 0.10 % ID/g | accumulated radioactivity in Pancreas [1, 6]: 2.28 % ID/g and 2.28 ± 0.76 % ID/g | accumulated radioactivity in Right brain [1, 6]: 0.48 ± 0.08 % ID/g | accumulated radioactivity in Small intestine [1, 6]: 0.43 ± 0.11 % ID/g | accumulated radioactivity in Spleen [1, 6]: 0.48 ± 0.11 % ID/g | accumulated radioactivity in Stomach [1, 6]: 0.43 ± 0.04 % ID/g | accumulated radioactivity in Tumor [1, 6]: 1.49 % ID/g and 1.49 ± 0.40 % ID/g | Tumor-to-normal brain ratio ([1]; 90 minutes after injection): 3.14 | maximum accumulation in normal brain tissue ([1]; 90 minutes after injection, tumor-bearing rat): 0.48 % ID/g | accumulated radioactivity in Blood [1, 7]: 0.36 ± 0.03 % ID/g | accumulated radioactivity in Heart [1, 7]: 0.43 ± 0.07 % ID/g | accumulated radioactivity in Kidney [1, 7]: 0.41 ± 0.09 % ID/g | accumulated radioactivity in Large intestine [1, 7]: 0.38 ± 0.09 % ID/g | accumulated radioactivity in Left brain [1, 7]: 0.43 ± 0.09 % ID/g | accumulated radioactivity in Liver [1, 7]: 0.41 ± 0.09 % ID/g | accumulated radioactivity in Lung [1, 7]: 0.40 ± 0.06 % ID/g | accumulated radioactivity in Muscle [1, 7]: 0.37 ± 0.10 % ID/g | accumulated radioactivity in Pancreas [1, 7]: 2.24 % ID/g and 2.24 ± 0.72 % ID/g | accumulated radioactivity in Right brain [1, 7]: 0.34 ± 0.04 % ID/g | accumulated radioactivity in Small intestine [1, 7]: 0.41 ± 0.09 % ID/g | accumulated radioactivity in Spleen [1, 7]: 0.47 ± 0.04 % ID/g | accumulated radioactivity in Stomach [1, 7]: 0.41 ± 0.03 % ID/g | accumulated radioactivity in Tumor [1, 7]: 1.02 ± 0.16 % ID/g | Tumor-to-normal brain ratio ([1]; 120 minutes after injection): 2.34 | time of maximum accumulation in brain tumor and normal brain tissue ([1]; biological distribution, tumor-bearing rat): 90 min | radioactivity in urine sample (excretion via urine) ([1]; tumor-bearing rat): high level of radioactivity | radioactivity accumulation in brain tumor on PET imaging ([2]; F98 glioma Fischer 344 rat): significant radioactivity accumulation in brain tumor | time of maximum uptake in brain tumor on PET imaging ([2]; imaging at 0.5, 1, 1.5 and 2 hours): 90 min | time to maximal accumulation in cells (F98 glioma cells): 10 min | uptake ratio (radioactivity uptake of cells / total added radioactivity) (F98 glioma cells; after 10 minutes (maximal accumulation)): 0.47% | uptake ratio (radioactivity uptake of cells / total added radioactivity) (F98 glioma cells; after 1 hour): 0.41%
